According to patent publication US7018840B2, “Fluorescent metal sensors, and methods of making and using the same” (Massachusetts Institute of Technology, priority 2001, dated 2006):

How the values were obtained:
[1] = known from the literature; cited from earlier work
[2] = Affinity of subject ligand for Zn2+; format: binding
Excerpt: Fluorescence Zn^2+ Binding Titration (Kd1). The first Kd associated with Zn^2+ binding will be measured by a fluorescence titration as described previously. Spectra of the subject ligand will be acquired by exciting at 490 nm or other suitable wavelength and collecting and integrating from 500–575 nm or other appropriate window. The measurements will be performed in triplicate to ensure accuracy of the Kd value.

| Structure (SMILES) | affinity and specificity for Zn^2+ over Mg^2+ and Ca^2+ [1] | affinity for Zn^2+ [2] |
| --- | --- | --- |
| c1ccc(CN(CCN(Cc2ccccn2)Cc2ccccn2)Cc2ccccn2)nc1 [TPEN] | very high affinity and specificity |  |
| O=C(O)c1ccccc1-c1c2cc(Cl)c(=O)cc-2oc2cc(N(Cc3ccccn3)Cc3ccccn3)ccc12 [compound 30, 9-(o-Carboxyphenyl)-2-chloro-6-[bis(2-pyridylmethyl)amino]-3-xanthanone] |  | weak |
